Experimental data from patent publication US7312210B2, “Pyrrolo[2,1-c][1,4]benzodiazepine compounds and processes for the preparation thereof” (Council of Scientific and Industrial Research, priority 2005, dated 2007).

How the values were obtained:
[1] = test system: sixty human tumor cells derived from nine cancer types; assay: NCI in vitro cytotoxicity screen (SRB assay), mean graph midpoints over all cell lines; format: cell-based; details: for Log10LC50 mean graph midpoint (MG_MID): 50% cell death (−50% growth); for Log10LC50 mean graph midpoint (MG_MID) / Log10GI50 mean graph midpoint (MG_MID) / Log10TGI mean graph midpoint (MG_MID): 48 h continuous drug exposure, SRB protein assay, human tumor cell lines; for Log10GI50 mean graph midpoint (MG_MID): 50% cell growth inhibition; for Log10TGI mean graph midpoint (MG_MID): total cell growth inhibition (0% growth)
Description: (§1) Biological Activity: In vitro biological activity studies were carried out at the National Cancer Institute (USA).
(§2) Cytotoxicity: The compounds 7-methoxy-8-{5-[4-(2-oxo-2H-4-chromenyl)piperazino]pentyl}-oxy-(11aS)-1,2,3,11a-5H-pyrrolo[2,1-c][1,4]benzodiazepin-5-one, 7-methoxy-8-{3-[4-(7-methoxy-8-methyl-2-oxo-2H-4-chromenyl)piperazino]propyl}-oxy-(11aS)-1,2,3,11a-5H-pyrrolo[2,1-c][1,4]benzodiazepin-5-one and 7-methoxy-8-{5-[4-(7-methoxy-8-methyl-2-oxo-2H-4-chromenyl)piperazino]pentyl}-oxy-(11aS)-1,2,3,11a-5H-pyrrolo[2,1-c][1,4]benzodiazepin-5-one were evaluated for in vitro anticancer activity against sixty human tumor cells derived from […] (leukemia, non-small-cell lung, colon, CNS, melanoma, ovarian, prostate, and breast cancer) as shown in (Table 2). For each compound, dose response curves for each cell line were measured at a minimum of five concentrations at 10 fold dilutions. A protocol of 48 h continuous drug exposure was used and a sulforhodamine B (SRB) protein assay was used to estimate cell viability or growth. The concentration causing 50% cell growth inhibition (GI50), total cell growth inhibition (TGI 0% growth) and 50% cell death (LC50, −50% growth) compared with the control was calculated.

[2] = test system: Leukemia cancer cell lines; assay: NCI in vitro cytotoxicity screen (SRB assay), leukemia cell lines; format: cell-based, human; details: average of six to nine different cancer cell lines, 48 h exposure
Description: as §1, §2
(§3) Each cancer type represents the average of six to nine different cancer cell lines.

[3] = test system: Non-small-cell-lung cancer cell lines; assay: NCI in vitro cytotoxicity screen (SRB assay), non-small-cell-lung cell lines; format: cell-based, human; details: average of six to nine different cancer cell lines, 48 h exposure
Description: as §1, §2, §3

Colon cancer cell lines = assay: NCI in vitro cytotoxicity screen (SRB assay), colon cell lines; format: cell-based, human; details: average of six to nine different cancer cell lines, 48 h exposure
Description: as §1, §2, §3

CNS cancer cell lines = assay: NCI in vitro cytotoxicity screen (SRB assay), CNS cell lines; format: cell-based, human; details: average of six to nine different cancer cell lines, 48 h exposure
Description: as §1, §2, §3

[4] = test system: Melanoma cancer cell lines; assay: NCI in vitro cytotoxicity screen (SRB assay), melanoma cell lines; format: cell-based, human; details: average of six to nine different cancer cell lines, 48 h exposure
Description: as §1, §2, §3

[5] = test system: Ovarian cancer cell lines; assay: NCI in vitro cytotoxicity screen (SRB assay), ovarian cell lines; format: cell-based, human; details: average of six to nine different cancer cell lines, 48 h exposure
Description: as §1, §2, §3

Renal cancer cell lines = assay: NCI in vitro cytotoxicity screen (SRB assay), renal cell lines; format: cell-based, human; details: average of six to nine different cancer cell lines, 48 h exposure
Description: as §1, §2, §3

[6] = test system: Prostate cancer cell lines; assay: NCI in vitro cytotoxicity screen (SRB assay), prostate cell lines; format: cell-based, human; details: average of six to nine different cancer cell lines, 48 h exposure
Description: as §1, §2, §3

Breast cancer cell lines = assay: NCI in vitro cytotoxicity screen (SRB assay), breast cell lines; format: cell-based, human; details: average of six to nine different cancer cell lines, 48 h exposure
Description: as §1, §2, §3

With `COc1cc2c(cc1OCCCCCN1CCN(c3cc(=O)oc4ccccc34)CC1)N=C[C@@H]1CCCN1C2=O` [Compound 5c, 7-Methoxy-8-{5-[4-(2-oxo-2H-4-chromenyl)piperazino]pentyl}-oxy-(11aS)-1,2,3,11a-5H-pyrrolo[2,1-c][1,4]benzodiazepin-5-one] the “Log10LC50 mean graph midpoint (MG_MID)” value [1] was −4.99, the “Log10GI50 mean graph midpoint (MG_MID)” value [1] was −7.68 and the “Log10TGI mean graph midpoint (MG_MID)” value [1] was −6.66. The “mean graph pattern: profile of activity and selectivity” value ([1]; various cell lines) was “interesting profile of activity and selectivity for various cell lines”, the “Log10LC50 concentration in mol/L causing 50% lethality” value [2] was −5.03 mol/L and the “Log10LC50 concentration in mol/L causing 50% lethality” value [3] was −4.92 mol/L. The “Log10LC50 concentration in mol/L causing 50% lethality” value (Colon cancer cell lines) was −5.24 mol/L, the “Log10LC50 concentration in mol/L causing 50% lethality” value (CNS cancer cell lines) was −4.70 mol/L and the “Log10LC50 concentration in mol/L causing 50% lethality” value [4] was −5.68 mol/L. The “Log10LC50 concentration in mol/L causing 50% lethality” value [5] was −5.44 mol/L, the “Log10LC50 concentration in mol/L causing 50% lethality” value (Renal cancer cell lines) was −5.26 mol/L and the “Log10LC50 concentration in mol/L causing 50% lethality” value [6] was −4.53 mol/L. The “Log10LC50 concentration in mol/L causing 50% lethality” value (Breast cancer cell lines) was −4.71 mol/L.
In the case of `COc1cc2c(cc1OCCCCCN1CCN(c3cc(=O)oc4c(C)c(OC)ccc34)CC1)N=C[C@@H]1CCCN1C2=O` [Compound 5f, 7-Methoxy-8-{5-[4-(7-methoxy-8-methyl-2-oxo-2H-4-chromenyl)piperazino]pentyl}-oxy-(11aS)-1,2,3,11a-5H-pyrrolo[2,1-c][1,4]benzodiazepin-5-one], the “Log10LC50 mean graph midpoint (MG_MID)” value [1] is reported as −4.96, the “Log10GI50 mean graph midpoint (MG_MID)” value [1] is reported as −6.49 and the “Log10TGI mean graph midpoint (MG_MID)” value [1] is reported as −5.85. For the same molecule, the “Log10LC50 concentration in mol/L causing 50% lethality” value [2] was −5.39 mol/L, the “Log10LC50 concentration in mol/L causing 50% lethality” value [3] was −4.87 mol/L and the “Log10LC50 concentration in mol/L causing 50% lethality” value (Colon cancer cell lines) was −5.41 mol/L. For the same molecule, the “Log10LC50 concentration in mol/L causing 50% lethality” value (CNS cancer cell lines) was −4.63 mol/L, the “Log10LC50 concentration in mol/L causing 50% lethality” value [4] was −5.29 mol/L and the “Log10LC50 concentration in mol/L causing 50% lethality” value [5] was −4.28 mol/L. For the same molecule, the “Log10LC50 concentration in mol/L causing 50% lethality” value (Renal cancer cell lines) was −5.17 mol/L, the “Log10LC50 concentration in mol/L causing 50% lethality” value [6] was −4.85 mol/L and the “Log10LC50 concentration in mol/L causing 50% lethality” value (Breast cancer cell lines) was −4.52 mol/L.
For `COc1cc2c(cc1OCCCN1CCN(c3cc(=O)oc4c(C)c(OC)ccc34)CC1)N=C[C@@H]1CCCN1C2=O` [Compound 5d, 7-Methoxy-8-{3-[4-(7-methoxy-8-methyl-2-oxo-2H-4-chromenyl)piperazino]propyl}-oxy-(11aS)-1,2,3,11a-5H-pyrrolo[2,1-c][1,4]benzodiazepin-5-one], the “Log10LC50 mean graph midpoint (MG_MID)” value [1] was −4.19, the “Log10GI50 mean graph midpoint (MG_MID)” value [1] was −5.68 and the “Log10TGI mean graph midpoint (MG_MID)” value [1] was −4.86. For the same molecule, the “Log10LC50 concentration in mol/L causing 50% lethality” value [2] was −4.22 mol/L, the “Log10LC50 concentration in mol/L causing 50% lethality” value [3] was −4.23 mol/L and the “Log10LC50 concentration in mol/L causing 50% lethality” value (Colon cancer cell lines) was −4.87 mol/L. For the same molecule, the “Log10LC50 concentration in mol/L causing 50% lethality” value (CNS cancer cell lines) was −4.11 mol/L, the “Log10LC50 concentration in mol/L causing 50% lethality” value [4] was −4.34 mol/L and the “Log10LC50 concentration in mol/L causing 50% lethality” value [5] was −4.00 mol/L. The “Log10LC50 concentration in mol/L causing 50% lethality” value (Renal cancer cell lines) was −5.29 mol/L, the “Log10LC50 concentration in mol/L causing 50% lethality” value [6] was −4.00 mol/L and the “Log10LC50 concentration in mol/L causing 50% lethality” value (Breast cancer cell lines) was −4.11 mol/L.
